Patent US7880010B2, “Crystalline forms of a dimethylphenyl compound” (Theravance, Inc., priority 2006, dated 2011)

Key:
Test in all cases: Radioligand binding assay for human β adrenergic receptors
[1] = target: T1, human β1 adrenergic receptor (Homo sapiens, UniProt P08588); details: [3H]-dihydroalprenolol 1 nM
T1 construct: expressed in transfected cells; host or cells: HEK-293
Description: (§1) Human embryonic kidney (HEK-293) cell lines stably expressing cloned human β1 and β2 adrenergic receptors or Chinese hamster ovarian (CHO) cell lines stably expressing cloned human β3 adrenergic receptors were grown to near confluency in DMEM or Hams F-12 media with 10% FBS in the presence of 500 μg/mL Geneticin. The cell monolayer was lifted with 2 mM EDTA in PBS. Cells were pelleted by centrifugation at 1,000 rpm, and cell pellets were either stored frozen at −80° C. or membranes were prepared immediately for use. For preparation of β1 and β2 receptor expressing membranes, cell pellets were re-suspended in lysis buffer (10 mM HEPES/HCl, 10 mM EDTA, pH 7.4 at 4° C.) and homogenized using a tight-fitting Dounce glass homogenizer (30 strokes) on ice. […] The protein concentration of the membrane suspension was determined by the methods described in Lowry et al., 1951, Journal of Biological Chemistry, 193, 265; and Bradford, Analytical Biochemistry, 1976, 72, 248-54. […]
(§2) Binding assays were performed in 96-well microtiter plates in a total assay volume of 100 μL with 10-15 μg of membrane protein containing the human β1, β2 or β3 adrenergic receptors in assay buffer (75 mM Tris/HCl pH 7.4 at 25° C., 12.5 mM MgCl2, 1 mM EDTA, 0.2% BSA). […] Non-specific binding was determined in the presence of 10 μM propranolol. […] Filter plates were washed three times with filtration buffer (75 mM Tris/HCl pH 7.4 at 4° C., 12.5 mM MgCl2, 1 mM EDTA) to remove unbound radioactivity. The plates were then dried and 50 μL of Microscint-20 liquid scintillation fluid (Packard BioScience Co., Meriden, Conn.) was added and plates were counted in a Packard Topcount liquid scintillation counter (Packard BioScience Co., Meriden, Conn.). Binding data were analyzed by nonlinear regression analysis with the GraphPad Prism Software package (GraphPad Software, Inc., San Diego, Calif.) using the 3-parameter model for one-site competition. The curve minimum was fixed to the value for nonspecific binding, as determined in the presence of 10 μM propranolol. […]

[2] = target: T2, human β2 adrenergic receptor (Homo sapiens, UniProt P07550); details: [3H]-dihydroalprenolol 1 nM
T2 construct: expressed in transfected cells; host or cells: HEK-293
T2 sequence (P07550 whole entry): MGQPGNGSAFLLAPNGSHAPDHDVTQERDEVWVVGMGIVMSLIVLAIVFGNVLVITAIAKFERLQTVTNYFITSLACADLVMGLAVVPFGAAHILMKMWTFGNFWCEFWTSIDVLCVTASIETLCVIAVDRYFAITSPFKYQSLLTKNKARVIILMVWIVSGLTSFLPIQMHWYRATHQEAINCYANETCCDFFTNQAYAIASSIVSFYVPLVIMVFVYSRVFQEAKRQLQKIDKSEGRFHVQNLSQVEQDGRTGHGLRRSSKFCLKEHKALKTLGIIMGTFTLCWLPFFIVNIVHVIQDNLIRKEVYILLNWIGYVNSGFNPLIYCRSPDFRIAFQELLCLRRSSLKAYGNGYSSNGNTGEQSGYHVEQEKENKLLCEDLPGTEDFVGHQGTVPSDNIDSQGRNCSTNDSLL
Description: as §1, §2

[3] = target: T3, human β3 adrenergic receptor (Homo sapiens, UniProt P13945); details: [125I]-(−)-iodocyanopindolol 0.5 nM
T3 construct: expressed in transfected cells; host or cells: CHO / CHO-K1
T3 sequence (P13945 whole entry): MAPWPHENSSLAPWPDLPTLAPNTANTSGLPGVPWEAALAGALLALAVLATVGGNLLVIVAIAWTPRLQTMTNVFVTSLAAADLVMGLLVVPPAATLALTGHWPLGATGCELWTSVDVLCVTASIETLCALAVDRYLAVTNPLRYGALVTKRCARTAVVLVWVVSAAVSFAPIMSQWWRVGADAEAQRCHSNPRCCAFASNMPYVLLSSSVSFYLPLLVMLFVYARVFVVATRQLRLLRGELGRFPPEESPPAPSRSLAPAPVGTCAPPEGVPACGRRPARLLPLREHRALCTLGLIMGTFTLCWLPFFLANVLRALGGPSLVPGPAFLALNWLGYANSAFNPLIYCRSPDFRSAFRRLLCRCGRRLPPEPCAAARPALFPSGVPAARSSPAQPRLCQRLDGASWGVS
Description: as §1, §2

T1 sequence (P08588 whole entry): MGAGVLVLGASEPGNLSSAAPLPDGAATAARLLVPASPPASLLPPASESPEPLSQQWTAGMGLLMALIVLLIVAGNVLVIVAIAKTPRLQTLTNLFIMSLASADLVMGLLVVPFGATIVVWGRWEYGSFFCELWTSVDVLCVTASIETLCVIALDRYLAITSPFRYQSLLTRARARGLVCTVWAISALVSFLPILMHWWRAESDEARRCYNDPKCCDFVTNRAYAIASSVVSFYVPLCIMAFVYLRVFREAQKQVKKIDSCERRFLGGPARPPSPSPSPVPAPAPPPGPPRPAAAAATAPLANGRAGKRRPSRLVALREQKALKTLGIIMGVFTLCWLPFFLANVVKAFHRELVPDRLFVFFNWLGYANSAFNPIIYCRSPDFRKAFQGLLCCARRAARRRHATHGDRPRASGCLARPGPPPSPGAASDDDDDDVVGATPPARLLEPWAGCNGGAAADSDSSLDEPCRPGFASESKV

Cc1cc(NC(=O)CCN2CCC(OC(=O)Nc3ccccc3-c3ccccc3)CC2)c(C)cc1CNC[C@H](O)c1ccc(O)c(NC=O)c1 [compound of formula I, biphenyl-2-ylcarbamic acid 1-[2-(4-{[(R)-2-(3-formylamino-4-hydroxyphenyl)-2-hydroxyethylamino]methyl}-2,5-dimethylphenylcarbamoyl)ethyl]-piperidin-4-yl ester]
Ki [1]: > 1000 nM | Ki [2]: < 10 nM | Ki [3]: > 1000 nM
